# Laboratory results reported in patent US11179294B2, “Preservative removal from eye drops” (TearClear Corp., priority 2019, dated 2021).
# Counter-ions that a name gives are not always drawn.
# Experiments:
# Type in all cases: physicochemical
# [1] = Timolol Maleate/Brimonidine tartrate API uptake drop test through tip loaded with 20/80 polypropylene/stearic acid powder (Table 6); conditions: solution 2NB62, 0.32 g stearic acid/polypropylene powder in tip, HPLC area counts of drops vs starting solution
# Description: (§1) A Timolol Maleate/Brimonidine tartrate ophthalmic solution was prepared (e.g., 2NB62, a Combigan analogue, etc) according to Table 5. The following were added to a 500 mL bottle: 2.151 g of Sodium Phosphate dibasic heptahydrate (Fisher Chemical L #187384), 0.432 g of Sodium Phosphate monobasic monohydrate (Fisher Chemical L #188731), 0.505 g of 0.991% BAK solution (Lot 2NB61), 0.202 g of Brimonidine Tartrate (BOC Sciences L #BV19V06171), and 0.681 g of Timolol Maleate (BOC Sciences L #BS19V04062). Ultra-pure water (100.017 g) of was added and stirred on a rotary shaker overnight to dissolve. Three mL of the solution, 2NB62, was placed into a 5 mL dropper bottle. Stearic acid/polypropylene powder (0.32 g) was loaded into a proprietary testing tip. The tip was then placed on the dropper bottle containing the solution.
# (§2) In a simulated usage, two drops are dispensed and diluted according to the proper method for HPLC analysis. Additional pairs of drops are dispensed at intervals no less than 1 hour (hr) apart. A standard consisting of the starting material is taken and diluted according to the specific HPLC method. Then each individual drop is analyzed on the HPLC. The uptake is determined by comparing the area counts from the HPLC peaks of the starting solution to the area counts of the drop.
# [2] = Lifitegrast API uptake drop test through tip loaded with 50/50 polypropylene/stearic acid blend (Table 9); conditions: 5.0% Lifitegrast formulation, 0.328 g 50/50 blend in tip
# Description: (§3) A Lifitegrast ophthalmic solution (e.g., Xiidra mimic in the table) was prepared, consisting of 5.0% Lifitegrast (BOC Sciences Lot B19V08071), 2.0% Sodium Phosphate Dibasic Anhydrous (J. T. Baker Lot 0000236665), 0.5% Sodium thiosulfate pentahydrate (Fisher Chemical Lot 181801), and 0.005% BAK Aldrich 12063 (Lot #BCBW4741).
# (§4) Three mL of the Lifitegrast formulation was placed into a 5 mL dropper bottle. 50/50 polypropylene/steric acid blend (0.328 g) was loaded into a proprietary testing tip. The tip was then placed on the dropper bottle containing the solution.
# (§5) In a simulated usage, two drops are dispensed and diluted according to the proper method for HPLC analysis. Due to the relatively high concentration of Lifitegrast, 2 separate drops tests were done for the active pharmaceutical ingredient and BAK. A standard consisting of the starting material is taken and diluted according to the specific HPLC method. Then each pair of drops was analyzed on the HPLC. The uptake is determined by comparing the area counts of the HPLC peaks of the starting solution to the area counts of the drop.
# [3] = Bimatoprost API/BAK uptake drop test through tip loaded with recrystallized stearic acid flakes (Table 8)
# Description: Bimatoprost ophthalmic solution (20 mL) was formulated by combining 0.0027 g of Citric Acid Anhydrous (Alfa Aesar L #X16D073), 0.0536 g of Sodium phosphate dibasic, heptahydrate (Fisher chemical L #187384) and 0.1619 g of Sodium Chloride (Fisher chemical L #177082) to 20 g stock solution (2NB70.1) of 300 ppm Bimatoprost and 50 ppm BAK.
# Bimatoprost formulation (3 mL), was placed into a 5 mL dropper bottle. Recrystallized Stearic acid flakes (0.116 g) was loaded into a proprietary testing tip. The tip was then placed on the dropper bottle containing the solution.
# as §2, with “hour” for “hour (hr)”, “pair of drops was” for “individual drop is”, “counts” for “counts from the HPLC peaks”, “drop. Bimatoprost has a similar linear signal range as BAK in this formulation so all data is collected from a single drop test. […] In successive drops, the BAK is not detected (e.g., is undetectable, is below a detectable threshold based on UV absorption, etc.).” for “drop.”
# [4] = Lifitegrast BAK uptake drop test through tip loaded with 50/50 polypropylene/stearic acid blend (Table 10)
# Description: as §3, §4, §5
# [5] = Timolol Maleate/Brimonidine tartrate BAK uptake drop test through tip loaded with 20/80 polypropylene/stearic acid powder (Table 7); conditions: solution 2NB62 through 20/80 blend tip
# Description: as §1
# In a simulated usage, two drops are dispensed and diluted according to the proper method for HPLC analysis. […] Then each individual drop is analyzed on the HPLC. The uptake is determined by comparing the area counts from the HPLC peaks of the starting solution to the area counts of the drop.
# A separate, parallel drop test was performed using the same materials to test BAK uptake. […] In successive drops, the BAK is not detected (e.g., is undetectable, is below a detectable threshold based on UV absorption, etc.).
# [6] = 300 ppm Bimatoprost / 50 ppm BAK formulation, 0.116 g recrystallized stearic acid flakes in tip
compound,measurement,setting,value
Brimonidine Tartrate,API concentration after passing through the powder in the tip,[1],neither the concentration of Timolol nor Brimonidine are significantly affected
CS(=O)(=O)c1cccc(C[C@H](NC(=O)c2c(Cl)cc3c(c2Cl)CCN(C(=O)c2ccc4ccoc4c2)C3)C(=O)O)c1 [Lifitegrast],Lifitegrast passage through the tip,[2],not hindered
CCNC(=O)CCC/C=C\C[C@@H]1[C@@H](/C=C/[C@@H](O)CCc2ccccc2)[C@H](O)C[C@@H]1O [Bimatoprost],Bimatoprost concentration after passing through the flakes,[3]; [6],not significantly reduced
Benzalkonium chloride [BAK],BAK in later drops,"[4]; drops after the first, Lifitegrast formulation through 50/50 blend tip",not detectable
same,BAK in first drop,"[4]; first drop, Lifitegrast formulation with 0.005% BAK through 50/50 blend tip",only a small amount
same,BAK in successive drops,"[5]; drops after the first, UV detection",not detected
same,"BAK in first drop, share of starting BAK",[5]; first drop,about 5%
same,BAK after passing through the flakes,[3]; [6],eliminated
same,BAK in successive drops,"[3]; successive drops, recrystallized stearic acid flakes tip",not detected
"CC(C)(C)NC[C@H](O)COc1nsnc1N1CCOCC1 [Timolol, Timolol Maleate]",API concentration after passing through the powder in the tip,[1],neither the concentration of Timolol nor Brimonidine are significantly affected
